Results published in the NIST ThermoML archive (doi:10.1021/je500696p).

Assay: xn = mol fraction of the nth substance listed
Conditions: 100 kPa, Liquid, Vibrating tube method

CCCC[N+](C)(C)C.O=S(=O)([N-]S(=O)(=O)C(F)(F)F)C(F)(F)F [butyltrimethylammonium bis(trifluoromethylsulfonyl)imide] + CCO
mass density [kg/m3]
Conditions	293.15 K	295.15 K	298.15 K	303.15 K	308.15 K	313.15 K	318.15 K
x2 = 0	1397.1	1395.3	1392.7	1388.3	1384	1379.6	1375.2
x2 = 0.1284	1379.5	1377.7	1375.1	1370.6	1366.2	1361.8	1357.4
x2 = 0.2585	1357.1	1355.3	1352.6	1348.1	1343.7	1339.2	1334.8
x2 = 0.3814	1329.7	1327.8	1325.1	1320.6	1316.1	1311.6	1307.1
x2 = 0.5031	1293.9	1292	1289.3	1284.7	1280.1	1275.6	–
x2 = 0.6487	1232.1	1230.3	1227.5	1222.8	1218.2	1213.6	–
x2 = 0.7823	1142	1140.1	1137.3	1132.7	1128	1123.3	–
x2 = 0.8561	1066.3	1064.5	1061.7	1057.1	1052.4	1047.8	–
x2 = 0.8763	1040.6	1038.8	1036	1031.4	1026.8	1022.1	–
x2 = 0.9039	1000.1	998.3	995.6	991	986.4	981.8	–
x2 = 0.95	916.4	914.6	911.9	907.4	902.9	898.4	–
x2 = 0.9745	860.2	858.4	855.8	851.4	846.9	842.5	–
